Broadly, the IC50 is the point on the concentration scale where inhibition reaches its midpoint.

The values that follow come from doi:10.1101/208439v1 (biorxiv, 2017).

For one assay, the target named is T1, GLP (Homo sapiens, UniProt Q9H9B1).
T1 construct: gene EHMT1
T1 sequence (Q9H9B1 1-1298): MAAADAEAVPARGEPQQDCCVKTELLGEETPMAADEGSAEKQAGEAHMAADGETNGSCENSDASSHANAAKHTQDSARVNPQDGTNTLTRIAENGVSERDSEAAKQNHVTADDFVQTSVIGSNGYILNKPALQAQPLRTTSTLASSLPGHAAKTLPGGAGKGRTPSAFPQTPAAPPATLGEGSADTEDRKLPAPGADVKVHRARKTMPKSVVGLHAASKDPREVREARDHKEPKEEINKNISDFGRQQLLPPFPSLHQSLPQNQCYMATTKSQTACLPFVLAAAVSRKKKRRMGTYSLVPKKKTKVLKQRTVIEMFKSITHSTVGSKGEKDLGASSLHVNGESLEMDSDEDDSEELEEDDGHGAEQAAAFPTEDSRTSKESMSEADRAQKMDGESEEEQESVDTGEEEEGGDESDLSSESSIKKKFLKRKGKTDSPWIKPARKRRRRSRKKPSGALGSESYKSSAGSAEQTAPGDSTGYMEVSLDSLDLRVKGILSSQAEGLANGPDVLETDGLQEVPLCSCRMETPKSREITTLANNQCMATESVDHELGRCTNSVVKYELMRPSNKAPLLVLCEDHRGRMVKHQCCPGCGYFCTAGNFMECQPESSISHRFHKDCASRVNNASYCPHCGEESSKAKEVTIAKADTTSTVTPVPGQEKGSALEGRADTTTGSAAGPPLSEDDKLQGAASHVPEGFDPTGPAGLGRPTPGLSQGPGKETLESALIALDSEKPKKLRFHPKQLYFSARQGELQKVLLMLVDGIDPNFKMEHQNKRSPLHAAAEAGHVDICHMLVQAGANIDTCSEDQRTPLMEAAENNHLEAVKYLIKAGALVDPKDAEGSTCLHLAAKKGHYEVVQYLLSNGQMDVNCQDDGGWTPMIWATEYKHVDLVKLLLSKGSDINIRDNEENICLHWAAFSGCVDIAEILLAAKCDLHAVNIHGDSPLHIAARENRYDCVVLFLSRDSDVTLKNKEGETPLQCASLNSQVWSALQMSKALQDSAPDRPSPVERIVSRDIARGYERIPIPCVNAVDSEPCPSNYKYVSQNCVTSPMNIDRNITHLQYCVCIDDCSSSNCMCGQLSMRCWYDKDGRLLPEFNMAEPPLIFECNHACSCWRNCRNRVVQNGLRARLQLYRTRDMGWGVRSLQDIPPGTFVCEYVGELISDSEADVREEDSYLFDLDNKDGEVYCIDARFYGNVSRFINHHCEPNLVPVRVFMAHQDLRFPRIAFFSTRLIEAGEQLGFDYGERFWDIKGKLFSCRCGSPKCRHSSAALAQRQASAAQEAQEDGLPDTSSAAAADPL
As to the kind of experiment: biochemical. The conditions noted are these: read-out: DA3003-1 IC50; inhibitor.

The target in a further assay is PRMT7 (Homo sapiens, UniProt Q9NVM4). As to the kind of experiment: biochemical. The conditions noted are these: read-out: DA3003-1 IC50; inhibitor.
Chain of PRMT7 (Q9NVM4 whole entry): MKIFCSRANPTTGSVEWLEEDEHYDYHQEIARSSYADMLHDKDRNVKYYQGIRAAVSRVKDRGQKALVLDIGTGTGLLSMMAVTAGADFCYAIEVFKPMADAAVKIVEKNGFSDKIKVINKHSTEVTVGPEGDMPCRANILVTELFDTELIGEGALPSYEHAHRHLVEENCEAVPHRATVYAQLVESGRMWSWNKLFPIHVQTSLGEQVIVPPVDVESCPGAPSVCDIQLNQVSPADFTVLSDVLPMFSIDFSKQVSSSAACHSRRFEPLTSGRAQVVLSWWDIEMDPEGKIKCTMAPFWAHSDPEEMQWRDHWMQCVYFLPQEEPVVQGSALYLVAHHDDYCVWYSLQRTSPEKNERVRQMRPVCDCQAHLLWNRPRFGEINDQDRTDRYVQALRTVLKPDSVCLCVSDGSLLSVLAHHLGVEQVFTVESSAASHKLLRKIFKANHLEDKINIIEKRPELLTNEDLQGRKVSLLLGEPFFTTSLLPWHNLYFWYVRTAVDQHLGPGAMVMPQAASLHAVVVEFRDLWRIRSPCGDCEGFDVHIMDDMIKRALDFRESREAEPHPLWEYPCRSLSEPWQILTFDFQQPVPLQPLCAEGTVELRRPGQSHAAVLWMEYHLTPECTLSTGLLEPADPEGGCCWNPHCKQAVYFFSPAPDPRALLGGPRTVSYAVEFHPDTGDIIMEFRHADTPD
In another assay the target is PRMT6 (Homo sapiens, UniProt Q96LA8). The conditions noted are these: read-out: DA3003-1 IC50; inhibitor.
Chain of PRMT6 (Q96LA8 whole entry): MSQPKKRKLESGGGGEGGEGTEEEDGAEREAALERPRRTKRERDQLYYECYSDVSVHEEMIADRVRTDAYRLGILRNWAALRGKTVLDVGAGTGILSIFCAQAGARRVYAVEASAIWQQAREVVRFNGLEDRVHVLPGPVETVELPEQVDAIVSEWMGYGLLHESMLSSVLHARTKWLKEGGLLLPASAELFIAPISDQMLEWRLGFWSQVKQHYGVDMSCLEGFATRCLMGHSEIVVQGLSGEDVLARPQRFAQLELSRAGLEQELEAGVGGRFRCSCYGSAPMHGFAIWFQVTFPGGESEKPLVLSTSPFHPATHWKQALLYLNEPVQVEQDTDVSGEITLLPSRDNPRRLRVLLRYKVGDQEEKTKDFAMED
A further assay addresses T2, PRMT4 (Homo sapiens, UniProt Q86X55).
T2 construct: gene CARM1
Particulars: read-out: DA3003-1 IC50; inhibitor.

A further assay addresses MLL3 Complex (Homo sapiens, UniProt Q8NEZ4). As to the kind of experiment: HotSpot [3H]SAM filter-binding methyltransferase assay. It is filed as biochemical. More on the design: gene KMT2C; complex assembled as MLL1; MLL3 His tag, E. coli; with WD repeat-containing protein 5; Set1/Ash2 histone methyltransferase complex subunit ASH2; Protein dpy-30 homolog. Particulars: core histone, […] SAM, pH […] MgCl2, […] DTT, […] °C, single experiment.

Chain of MLL3 Complex (Q9C005 whole entry): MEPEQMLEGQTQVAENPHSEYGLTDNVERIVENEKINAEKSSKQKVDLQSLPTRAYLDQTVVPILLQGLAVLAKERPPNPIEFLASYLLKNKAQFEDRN
Chain of MLL3 Complex (Q8NEZ4 4689-4911): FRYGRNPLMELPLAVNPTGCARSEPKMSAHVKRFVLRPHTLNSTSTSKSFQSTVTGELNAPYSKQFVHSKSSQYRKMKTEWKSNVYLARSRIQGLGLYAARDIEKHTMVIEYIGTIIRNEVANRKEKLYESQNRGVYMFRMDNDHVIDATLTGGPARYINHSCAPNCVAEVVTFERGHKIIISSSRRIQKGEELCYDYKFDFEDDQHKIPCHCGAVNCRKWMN
Chain of MLL3 Complex (Q9UBL3 96-628, further chain): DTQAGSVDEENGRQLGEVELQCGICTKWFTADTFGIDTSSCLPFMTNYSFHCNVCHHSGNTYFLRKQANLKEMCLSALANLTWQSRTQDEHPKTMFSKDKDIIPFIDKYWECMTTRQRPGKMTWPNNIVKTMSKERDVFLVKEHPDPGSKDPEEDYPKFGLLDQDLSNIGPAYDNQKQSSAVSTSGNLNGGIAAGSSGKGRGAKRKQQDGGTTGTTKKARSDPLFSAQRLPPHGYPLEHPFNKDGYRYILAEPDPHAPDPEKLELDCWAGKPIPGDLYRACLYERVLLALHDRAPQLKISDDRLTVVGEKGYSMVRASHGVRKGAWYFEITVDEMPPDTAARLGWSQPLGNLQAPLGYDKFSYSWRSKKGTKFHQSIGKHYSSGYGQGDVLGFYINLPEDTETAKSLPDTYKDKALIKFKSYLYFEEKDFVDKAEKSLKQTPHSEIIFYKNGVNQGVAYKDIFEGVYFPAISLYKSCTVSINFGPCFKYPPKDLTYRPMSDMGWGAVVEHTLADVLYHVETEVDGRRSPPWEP
Chain of MLL3 Complex (Q15291 whole entry, further chain): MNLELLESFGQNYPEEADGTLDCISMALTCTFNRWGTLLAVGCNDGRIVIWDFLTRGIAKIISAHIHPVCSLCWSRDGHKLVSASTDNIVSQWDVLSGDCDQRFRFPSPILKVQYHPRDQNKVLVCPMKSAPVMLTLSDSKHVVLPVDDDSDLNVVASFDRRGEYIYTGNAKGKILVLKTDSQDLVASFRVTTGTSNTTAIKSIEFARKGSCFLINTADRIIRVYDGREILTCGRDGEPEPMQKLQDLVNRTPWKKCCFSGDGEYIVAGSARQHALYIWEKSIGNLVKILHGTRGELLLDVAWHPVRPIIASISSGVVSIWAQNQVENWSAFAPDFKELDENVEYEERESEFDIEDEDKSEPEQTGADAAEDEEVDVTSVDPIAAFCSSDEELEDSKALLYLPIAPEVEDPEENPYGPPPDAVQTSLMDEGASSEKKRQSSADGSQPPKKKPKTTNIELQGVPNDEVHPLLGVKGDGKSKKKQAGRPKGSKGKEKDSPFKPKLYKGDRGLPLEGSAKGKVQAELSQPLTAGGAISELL
T2 sequence (Q86X55 whole entry): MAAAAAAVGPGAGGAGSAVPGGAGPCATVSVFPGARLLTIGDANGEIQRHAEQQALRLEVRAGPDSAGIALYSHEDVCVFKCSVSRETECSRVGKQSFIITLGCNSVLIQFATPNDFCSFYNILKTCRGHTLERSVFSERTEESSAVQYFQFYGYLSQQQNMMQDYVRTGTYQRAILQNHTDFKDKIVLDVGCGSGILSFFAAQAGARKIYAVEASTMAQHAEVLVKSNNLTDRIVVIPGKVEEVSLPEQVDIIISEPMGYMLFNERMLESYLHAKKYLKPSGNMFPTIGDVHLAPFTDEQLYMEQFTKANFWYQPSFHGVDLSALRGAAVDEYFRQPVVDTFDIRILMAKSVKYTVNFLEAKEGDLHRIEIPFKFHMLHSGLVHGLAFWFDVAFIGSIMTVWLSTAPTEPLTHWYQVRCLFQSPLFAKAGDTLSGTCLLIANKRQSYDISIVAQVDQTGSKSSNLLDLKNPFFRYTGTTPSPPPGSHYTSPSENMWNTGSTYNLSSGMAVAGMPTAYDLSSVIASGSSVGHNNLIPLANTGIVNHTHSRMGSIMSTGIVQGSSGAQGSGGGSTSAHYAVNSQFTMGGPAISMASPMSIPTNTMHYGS

As to `O=C1C(Cl)=C(NCCN2CCOCC2)C(=O)c2ncccc21` [DA3003-1], the IC50 stood at 36000 nM on GLP, 420 nM on PRMT7, 1000 nM at PRMT6 and 1400 nM on PRMT4.
As to `COc1cccc(-n2nc(C(=O)O)cc2-c2ccc(C3CCCCC3)c(Cl)c2)c1` [TC LPA5 4], the IC50 at MLL3 Complex amounted to 63000 nM.
